The values that follow come from BindingDB's records for doi:10.1016/s0960-894x(01)00209-8 (Institut Für Biochemie Der Technischen …, 2001).

In this assay the target is Beta-glucosidase (Agrobacterium sp.) (UniProt P12614). Kind of assay: Inhibitory activity against Agrobacterium sp. Beta-glucosidase employing fluorescence spectrometric method.

Each structure is given as a SMILES string.

Chain of Beta-glucosidase (Agrobacterium sp.) (P12614 whole entry, looked up): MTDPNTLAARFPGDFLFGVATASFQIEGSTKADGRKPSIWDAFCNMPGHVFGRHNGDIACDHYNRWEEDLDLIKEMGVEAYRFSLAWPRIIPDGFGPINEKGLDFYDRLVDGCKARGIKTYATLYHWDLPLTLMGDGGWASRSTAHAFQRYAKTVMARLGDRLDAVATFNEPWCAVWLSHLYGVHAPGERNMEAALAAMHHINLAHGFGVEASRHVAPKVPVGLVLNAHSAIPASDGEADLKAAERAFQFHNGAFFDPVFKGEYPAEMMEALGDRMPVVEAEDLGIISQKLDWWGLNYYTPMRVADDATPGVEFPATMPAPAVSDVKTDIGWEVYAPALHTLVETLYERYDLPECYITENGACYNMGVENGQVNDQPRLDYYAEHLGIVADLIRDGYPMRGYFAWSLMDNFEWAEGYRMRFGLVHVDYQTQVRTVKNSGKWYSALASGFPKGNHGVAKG

A word on the Ki: it is the dissociation constant of the complex between target and ligand, obtained from inhibition or displacement. A low value points to tighter binding. Take `CN(C)c1cccc2c(S(=O)(=O)NC[C@H]3N[C@H](CO)[C@H](O)[C@@H]3O)cccc12` [5-Dimethylamino-naphthalene-1-sulfonic acid ((3S,4S,5R)-3,4-dihydroxy-5-hydroxymethyl-pyrrolidin-2-ylmethyl)-amide]: affinity was put at a Ki of 2.4 nM.

Take `CN(C)c1cccc2c(S(=O)(=O)NCCCCCC(=O)NC[C@H]3N[C@H](CO)[C@H](O)[C@@H]3O)cccc12` [6-(5-Dimethylamino-naphthalene-1-sulfonylamino)-hexanoic acid ((3S,4S,5R)-3,4-dihydroxy-5-hydroxymethyl-pyrrolidin-2-ylmethyl)-amide]: the affinity corresponds to a Ki of 2.1 nM.
